Measurements published in US20160002273A1, “THIENO[3,2-D]PYRIMIDINE-6-CARBOXAMIDES AND ANALOGUES AS SIRTUIN MODULATORS” (GLAXOSMITHKLINE LLC, priority 2013, published 2016).
Converted amounts (≈) assume the structure as drawn. Like-named read-outs stand apart in the source and are kept apart here.

Tests used:
SIRT1 [1] = molecular target: T1, SIRT1 (Homo sapiens, UniProt Q96EB6); test: SIRT1 deacetylation of Trp 5-mer peptide, OAADPr mass spec assay
T1 sequence (Q96EB6 1-747): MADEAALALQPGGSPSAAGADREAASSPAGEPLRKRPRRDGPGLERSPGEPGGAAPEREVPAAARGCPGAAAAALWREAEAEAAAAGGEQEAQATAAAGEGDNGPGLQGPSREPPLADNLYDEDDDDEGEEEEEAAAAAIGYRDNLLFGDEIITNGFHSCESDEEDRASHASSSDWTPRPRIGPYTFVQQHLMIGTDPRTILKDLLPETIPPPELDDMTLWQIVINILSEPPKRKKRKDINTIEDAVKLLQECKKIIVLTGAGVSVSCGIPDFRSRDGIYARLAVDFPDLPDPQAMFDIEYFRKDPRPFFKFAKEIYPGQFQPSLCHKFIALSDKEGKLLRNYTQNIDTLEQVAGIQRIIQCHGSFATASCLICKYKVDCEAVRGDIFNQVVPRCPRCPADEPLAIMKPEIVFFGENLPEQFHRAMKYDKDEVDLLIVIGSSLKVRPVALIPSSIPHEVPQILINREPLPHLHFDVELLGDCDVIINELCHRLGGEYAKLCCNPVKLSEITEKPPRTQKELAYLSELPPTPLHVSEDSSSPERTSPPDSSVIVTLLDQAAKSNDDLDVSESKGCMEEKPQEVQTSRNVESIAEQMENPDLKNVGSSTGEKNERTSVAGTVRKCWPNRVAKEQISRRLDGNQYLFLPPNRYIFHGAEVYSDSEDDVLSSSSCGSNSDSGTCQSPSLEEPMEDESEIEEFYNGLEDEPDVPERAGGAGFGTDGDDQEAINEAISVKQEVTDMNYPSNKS
Procedure: (§1) All assays were performed at room temperature in reaction buffer (50 mM HEPES, pH 7.5, 150 mM NaCl, 1 mM DTT, 0.05% BSA). […] To prepare the assays for analysis, 20 μL of reaction volume was mixed in 80 μL of 50:50 acetonitrile:methanol mixture. […] Peak data was integrated using RapidFire Integrator software (Agilent, Santa Clara, Calif.).

SIRT1/2/3 = SIRT1/2/3 biochemical assay, statements spanning all three enzymes; parameters: species or system human; settings: for SIRT1/2/3 inhibitory activity, in words: across SIRT1, SIRT2 and SIRT3
SIRT2 [2] = molecular target: T2, SIRT2 (Homo sapiens, UniProt Q8IXJ6); test: SIRT2 deacetylation of Trp 5-mer peptide, OAADPr mass spec assay; format: biochemical; parameters: His-SIRT2(1-389)
T2 sequence (Q8IXJ6 1-389): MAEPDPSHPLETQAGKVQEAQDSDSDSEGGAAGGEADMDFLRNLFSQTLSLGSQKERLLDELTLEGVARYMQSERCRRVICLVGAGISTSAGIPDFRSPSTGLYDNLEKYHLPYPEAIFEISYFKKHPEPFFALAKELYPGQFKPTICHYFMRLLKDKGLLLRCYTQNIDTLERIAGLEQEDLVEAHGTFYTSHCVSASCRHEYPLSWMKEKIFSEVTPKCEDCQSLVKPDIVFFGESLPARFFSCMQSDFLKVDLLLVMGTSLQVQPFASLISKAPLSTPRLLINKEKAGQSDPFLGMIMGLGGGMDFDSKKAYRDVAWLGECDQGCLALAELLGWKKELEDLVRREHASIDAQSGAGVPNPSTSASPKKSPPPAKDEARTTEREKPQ

SIRT3 = molecular target: T3, SIRT3 (Homo sapiens, UniProt Q9NTG7); test: SIRT3 deacetylation of Trp 5-mer peptide, OAADPr mass spec assay
T3 sequence (Q9NTG7 102-399): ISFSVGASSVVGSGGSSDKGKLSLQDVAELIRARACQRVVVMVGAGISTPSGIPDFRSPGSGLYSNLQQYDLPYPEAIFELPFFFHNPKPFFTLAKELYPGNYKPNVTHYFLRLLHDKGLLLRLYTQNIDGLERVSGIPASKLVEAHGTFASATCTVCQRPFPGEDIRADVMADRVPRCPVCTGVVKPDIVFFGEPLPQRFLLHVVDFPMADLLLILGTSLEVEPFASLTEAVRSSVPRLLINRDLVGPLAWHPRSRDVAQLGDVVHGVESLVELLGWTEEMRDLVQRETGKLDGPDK
Procedure: as §1

[3] = HPLC based lipophilicity assay (CHI LogD); format: physicochemical; settings: CHI values by reverse phase HPLC transformed to a LogD scale
[4] = Kinetic solubility by chemi-luminescent nitrogen detection (CLND); format: physicochemical; settings: aqueous buffer, kinetic from dmso stock, DMSO stock incubated 1 hr in phosphate buffered saline pH 7.4, filtered
[5] = tested on: sirtuin mediated deacetylation of acetyl-p65; test: Acetyl-p65 assay in U2OS cells (AlphaScreen); format: cell-based; settings: FIG. 6
Procedure: In certain embodiments, U2OS cells were counted by hemocytometer and diluted to a concentration of 1.5×10^5 cell/ml. BacMam p65 and BacMam p300-HAT viruses were added to the diluted cells at 1% and 1% (vol/vol). 40 μl aliquots of the cell suspensions containing the viruses were plated onto a 384 well plate with a multi-drop dispenser. After 7 hours, a 2-fold serial dilution of Compounds 25, 28 and Compound 4, hereafter referred to as the test compounds, was carried out in DMSO. The test compounds were subsequently diluted with medium (20-fold) in an intermediate compound plate, and 4 μL of each test compound was transferred by a liquid handler from the intermediate plate to a cell plate. 24 hours post viral transduction, the medium in the cell plate was removed by inverting and flicking the plate, and blotting the plate with paper towels. 30 μl of lysis buffer (25 mM HEPES pH 7.4, 0.5% Triton X-100, 1 mg/ml Dextran 500, 0.1% BSA, 300 mM NaCl, 2 mM MgCl2, 1×protease inhibitor cocktail) was added to each well to lyse the cells. After incubation of the cells with lysis buffer for 30 minutes at room temp, 10 μl and 3 μl aliquots of the cell lysates were transferred to assay plates, and the assay plate containing 3 μl aliquot of cell lysates was diluted with an additional 7 μl of lysis buffer to obtain a final volume of 10 μl. Acetyl-p65 and total p65 protein in cell lysates were measured using the AlphaScreen assay format (PerkinElmer). The antibodies used to detect acetyl-p65 protein were biotinylated anti-HA antibody (Roche, 12158167001) and anti-acetylated K310-p65 antibody (Abcam, ab19870). The antibodies used to detect total p65 protein were biotinylated anti-HA antibody (Roche, 12158167001) and anti-p65 antibody (Santa Cruz, sc109). […] After incubating the plates for another 2 hrs in the dark, the plates were read by a PHERAstar microplate reader. […]

SIRT2 [6] = molecular target: T2, SIRT2; settings: at 1 mM; Galli et al. (2012); cited from earlier work
SIRT1 [7] = molecular target: T1, SIRT1; settings: at 1 mM; Galli et al. (2012); cited from earlier work
[8] = IC50 (μM) SIRT1, Trp 5-mer peptide and NAD at KM, mean of at least three determinations
[9] = Trp SIRT1_IC50, Trp 5-mer peptide, class symbols
[10] = Trp 5-mer peptide and NAD at KM, mean of at least three determinations, read-out: IC50 (μM) SIRT2
[11] = Trp 5-mer peptide, class symbols, read-out: Trp SIRT2_IC50
[12] = IC50 (μM) SIRT3, Trp 5-mer peptide and NAD at KM, mean of at least three determinations
[13] = Trp SIRT3_IC50, Trp 5-mer peptide, class symbols
[14] = read-out: IC50 (μM) SIRT1, Trp 5-mer peptide and NAD at KM, mean of at least three determinations
[15] = Trp SIRT2_IC50, Trp 5-mer peptide, class symbols
[16] = read-out: IC50 (μM) SIRT3, Trp 5-mer peptide and NAD at KM, mean of at least three determinations

IC50 (SIRT1 [1]; [9])	IC50 (SIRT2 [2]; [10])	IC50 (SIRT2 [2]; [11])	IC50 (SIRT3; [13])	IC50 (SIRT1 [1]; [14])	Structure (SMILES)	further results
> 10 µM	> 50 µM	> 10 µM	> 10 µM		NC(=O)c1cc2ncnc(Cl)c2s1 [Compound 14, 4-chlorothieno[3,2-d]pyrimidine-6-carboxamide]	IC50 (SIRT1 [1]; [8]): > 50 µM; SIRT1/2/3 inhibitory activity, in words (SIRT1/2/3): not conserved; IC50 (SIRT3; [12]): > 50 µM
< 1 µM	0.005 µM	< 1 µM	< 1 µM		CCNC(=O)c1cccc(C(=O)NCCC2CCN(c3ncnc4cc(C(N)=O)sc34)CC2)c1 [Compound 11a, N^1-(2-(1-(6-carbamoylthieno[3,2-d]pyrimidin-4-yl)piperidin-4-yl)ethyl)-N^3-ethylisophthalamide]	LogD [3]: 2.09; IC50 (SIRT1 [1]; [8]): 0.014 µM; solubility at 1 hr [4]: 19 µM (≈ 9.13 µg/mL); IC50 (SIRT3; SIRT3 IC50, as stated in text): 0.001 µM
> 10 µM	1.4 µM		1 to 10 µM	15 µM	NC(=O)c1cc2ncnc(N3CCCCC3)c2s1 [Compound 21, 4-(Piperidin-1-yl)thieno[3,2-d]pyrimidine-6-carboxamide]	SIRT1/2/3 inhibitory activity, in words (SIRT1/2/3): micromolar levels; IC50 (SIRT2 [2]; [15]): 1 to 10 µM; IC50 (SIRT3; [16]): 8.6 µM
					CCNC(=O)c1ccc(C(=O)NCCC2CCN(c3ncnc4cc(C(N)=O)sc34)CC2)s1 [Compound 11c]	LogD [3]: 2.09; solubility at 1 hr [4]: 9 µM (≈ 4.38 µg/mL)
> 10 µM	49 µM		> 10 µM		CCNc1ncnc2cc(C(N)=O)sc12 [Compound 22, 4-(Ethylamino)thieno[3,2-d]pyrimidine-6-carboxamide]	IC50 (SIRT1 [1]; [8]): > 50 µM; SIRT1/2/3 inhibitory activity, in words (SIRT1/2/3): not conserved; IC50 (SIRT2 [2]; [15]): > 10 µM; IC50 (SIRT3; [12]): > 50 µM
					c1cncc(-c2c[nH]nn2)c1 [3-(1H-1,2,3-triazol-4-yl)pyridine]	SIRT2 activity remaining (SIRT2 [6]): 92%; SIRT1 activity remaining (SIRT1 [7]): 88%
< 1 µM	0.005 µM	< 1 µM		0.031 µM	CCNC(=O)c1ccc(C(=O)NCCN2CCN(c3ncnc4cc(C(N)=O)sc34)CC2)s1 [Compound 11d]	LogD [3]: 1.32; solubility at 1 hr [4]: 65 µM (≈ 31.7 µg/mL)
					NC(=O)C1CCCc2c1[nH]c1ccc(Cl)cc21 (stereo not shown) [4, EX-527, EX-527, reference compound]	inhibition of sirtuin mediated deacetylation of acetyl-p65 [5]: inhibit
1 to 10 µM		< 1 µM	1 to 10 µM		NCCC1CCN(c2ncnc3cc(C(N)=O)oc23)CC1 [Compound 95, 4-(4-(2-aminoethyl)piperidin-1-yl)furo[3,2-d]pyrimidine-6-carboxamide]	
< 1 µM	0.3 µM	< 1 µM	1 to 10 µM	0.49 µM	CC(C)(C)C(=O)NCCC1CCN(c2nccc3cc(C(N)=O)sc23)CC1 [Compound 38, 7-(4-(2-pivalamidoethyl)piperidin-1-yl)thieno[2,3-c]pyridine-2-carboxamide]	fold reduction in SIRT1/2/3 potency (SIRT1/2/3; compared to Compound 28, range across the three enzymes): 30-63 fold; IC50 (SIRT3; [16]): 2.1 µM
1 to 10 µM		1 to 10 µM	1 to 10 µM		COCCC1CCN(c2ncnc3cc(C(N)=O)oc23)CC1 [Compound 91]	
< 1 µM		< 1 µM	< 1 µM		CC(C)(C)OC(=O)NCCCC1CCN(c2ncnc3cc(C(N)=O)sc23)CC1 [Compound 76, tert-butyl (3-(1-(6-carbamoylthieno[3,2-d]pyrimidin-4-yl)piperidin-4-yl)propyl)carbamate]	
< 1 µM		< 1 µM	1 to 10 µM		CC(C)(C)OC(=O)NCCN1CCN(c2ncnc3cc(C(N)=O)oc23)CC1 [Compound 86]	
1 to 10 µM		< 1 µM	< 1 µM		CN(C)CC1CCN(c2ncnc3cc(C(N)=O)sc23)CC1 [Compound 43, 4-(4-((dimethylamino)methyl)piperidin-1-yl)thieno[3,2-d]pyrimidine-6-carboxamide]	

Structure (SMILES)	IC50 (SIRT1 [1]; [9])	IC50 (SIRT2 [2]; [10])	IC50 (SIRT2 [2]; [11])	IC50 (SIRT3; [13])	IC50 (SIRT1 [1]; [14])	further results
CC(=S)NCCC1CCN(c2ncnc3cc(C(N)=O)sc23)CC1 [Compound 25, 4-(4-(2-ethanethioamidoethyl)piperidin-1-yl)thieno[3,2-d]pyrimidine-6-carboxamide]	< 1 µM	0.03 µM			0.056 µM	IC50 (SIRT2 [2]; [15]): < 1 µM; inhibition of sirtuin mediated deacetylation of acetyl-p65 [5]: inhibit
CCNC(=O)c1cccc(C(=O)NCCN2CCN(c3ncnc4cc(C(N)=O)sc34)CC2)c1 [Compound 11b]	< 1 µM	0.01 µM	< 1 µM		0.067 µM	LogD [3]: 1.45; solubility at 1 hr [4]: 220 µM (≈ 106 µg/mL)
